Measurements: patent publication EP1421935A1 (Casini, Angela, priority 2002, dated 2004)
Values after ≈ are worked out from the molar mass of the structure shown. Marks after values point to notes of the source that are not given here.

Assays:
[1] = biological target: T1, bCA IV (Bos taurus, UniProt Q95323); test: CA inhibition, esterase method (4-nitrophenylacetate hydrolysis)
T1 sequence (Q95323 19-284): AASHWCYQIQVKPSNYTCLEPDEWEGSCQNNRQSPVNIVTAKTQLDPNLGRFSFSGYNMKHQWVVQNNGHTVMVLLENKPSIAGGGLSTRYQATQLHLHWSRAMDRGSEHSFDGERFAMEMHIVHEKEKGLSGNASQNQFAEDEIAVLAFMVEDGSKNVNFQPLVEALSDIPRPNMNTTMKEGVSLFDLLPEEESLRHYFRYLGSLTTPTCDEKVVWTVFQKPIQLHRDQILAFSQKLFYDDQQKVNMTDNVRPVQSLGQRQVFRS
Method: (§1) Stock solutions of inhibitor (1 mM) are prepared in distilled-deionized water with 10-20% (v/v) DMSO (which is not inhibitory at these concentrations) and dilutions up to 0.01 nM are done thereafter with distilled-deionized water. Inhibitor and enzyme solutions are preincubated together for 10 min at room temperature prior to assay, in order to allow for the formation of the E-I complex.

[2] = drug distribution in ocular fluids and tissues after topical administration; assay type: in vivo, albino rabbits; settings: mean ± standard deviation (n= 3)
[3] = solubility in aqueous buffer (UV of saturated solution); settings: 25 °C, pH 7.4, aqueous buffer, thermodynamic from solid
Method: The determination of solubility in aqueous buffer is performed as follows. […] The UV absorption maximum of each compound is determined (with a Cary 3 spectrophotometer) eventually diluting the solution (with MeOH) as necessary. […] The obtained saturated solution is filtered in order to remove solid compound through a Millipore 0.45 µm filter and scanned by UV at the wavelength of the absorption maximum previously determined. Total solubility is determined by the relationship: C' = A'C/A, where C = concentration of standard solution (mg/mL); A = absorbance of standard solution; A' = absorbance of the saturated solution; C' = concentration of the saturated solution (mg/mL).

[4] = chloroform-buffer partition coefficient; assay type: physicochemical; settings: pH 7.4 phosphate buffer, B compounds as sodium salts
Method: The determination of partition coefficient is performed as follows. Chloroform - buffer partition coefficients are obtained by equilibrating the test compound between chloroform and 0.1-ionic strength pH 7.4 phosphate buffer. The concentration in each phase is determined by UV spectrophotometry or HPLC.

[5] = transcorneal penetration of drugs (in vitro corneal permeability); settings: rate constant of transfer across excised rabbit cornea, pH 7.4; for kin x 10^3 (hr^-1) No epithelium: denuded epithelium; for kin x 10^3 (hr^-1) Cornea intact: intact epithelium
Method: The determination of transcorneal penetration of drugs is performed as follows. […] Excised rabbit corneas with either intact or denuded epithelium are used in these experiments. The pH is 7.4 and exposed area is 1.2 cm^2. Concentrations of drug of 40 - 2000 µM are placed in the epithelial chamber and samples of fluid are collected from the endothelial chamber at different intervals, up to 4 hr.

[6] = biological target: hCA II (Homo sapiens, UniProt P00918); test: CA inhibition, esterase method (4-nitrophenylacetate hydrolysis)
Method: as §1

[7] = biological target: hCA I (Homo sapiens, UniProt P00915); test: as above
Chain of hCA I (P00915 whole entry): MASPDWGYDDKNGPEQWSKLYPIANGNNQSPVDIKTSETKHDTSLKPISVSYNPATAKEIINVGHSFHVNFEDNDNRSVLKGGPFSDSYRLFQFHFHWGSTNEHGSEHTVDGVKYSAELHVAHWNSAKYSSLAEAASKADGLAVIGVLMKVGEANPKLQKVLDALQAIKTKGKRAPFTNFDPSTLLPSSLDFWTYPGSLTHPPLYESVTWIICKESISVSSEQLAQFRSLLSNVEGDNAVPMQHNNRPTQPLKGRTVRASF
Method: as §1

[8] = tested on: IOP of normotensive rabbits; test: tonometric measurement of IOP after topical administration; assay type: in vivo, New Zealand albino rabbits; settings: for Δ IOP ± SE (mm Hg) 30 min: 30 min after one drop (50 µL) of 2% solution; for Δ IOP ± SE (mm Hg) 30 min / Δ IOP ± SE (mm Hg) 60 min / Δ IOP ± SE (mm Hg) 90 min: topical, IOP control eye - IOP treated eye (N = 3); for Δ IOP ± SE (mm Hg) 60 min: 60 min after one drop (50 µL) of 2% solution; for Δ IOP ± SE (mm Hg) 90 min: 90 min after one drop (50 µL) of 2% solution; for IOP returns to baseline values after ... from administration: topical 2% solution (Fig. 2)
Method: Tonometric measurement of IOP are performed as follows.
Adult male New Zealand albino rabbits weighing 3-3.5 kg are used in the experiments. Three animals are used for each inhibitor studied. The experimental procedures conform to the Association for Research in Vision and Ophthalmology Resolution on the use of animals. The rabbits are kept in individual cages with food and water provided ad libitum and maintained on a 12 h light/dark cycle in a temperature controlled room, at 22-26 °C. Solutions and suspensions of inhibitors (2 %, by weight, as hydrochlorides, or sodium carboxylates) are made in distilled deionized water. The pH of these solutions is in the range of 5.5 - 7.4.
IOP is measured using a Digilab 30R pneumatonometer (BioRad, Cambridge, MA, USA) as described by Maren et al. (Maren et al., Exp. Eye Res. 55:73-79, 1992; Brechue et al., Invest. Ophthalmol. Vis. Sci. 34:2581-2587,1993). The pressure readings are matched with two-point standard pressure measurements at least twice each day using a Digilab Calibration verifier. All IOP measurements are done by the same investigator with the same tonometer. One drop of 0.2 % oxybuprocaine hydrochloride (novesine, Sandoz) diluted 1:1 with saline is instilled in each eye immediately before each set of pressure measurements. IOP is measured three times at each time interval, and the means reported. IOP is measured first immediately before drug administration, then at 30 min after the instillation of the pharmacological agent, and then each 30 minutes for a period of 4-6 hours. For all IOP experiments drug is administered to only one eye, leaving the contralateral eye as an untreated control. The ocular hypotensive activity is expressed as the average difference in IOP between the treated and control eye, in this way minimizing the diurnal, seasonal and inter-individual variations commonly observed in the rabbit (Id.). All data are expressed as mean ± SE. Ocular hypertension is elicited in the right eye of albino rabbits by the injection of α-chymotrypsin (from Sigma) as described by Sugrue et al. (Sugrue et al., Br. J. Pharmacol. 99:59-64, 1990). The IOP of operated animals is checked after approximately four weeks, and animals with an elevated pressure of 30-36 mm Hg are used at least one month after the injection of α-chymotrypsin.
In vivo IOP lowering experiments are done in normotensive and glaucomatous rabbits, with many of the new compounds reported here, due to their strong CA II and CA IV inhibitory properties, such as B7, B10-B13, B15, B18-B22, B25, B27, B28, B33, B37, and A40. […] Measurements are at 30, 60 and 90 min after administration Table 3.

[9] = 1h after corneal application of one drop (50 µL) of 2% solution
[10] = 2h after corneal application of one drop (50 µL) of 2% solution

Compound	Ki [1] [nM]	Drug concentration (µM) Aqueous humor [2, 9] [µM]	Drug concentration (µM) Ciliary process [2, 9] [µM]	Drug concentration (µM) Cornea [2, 9] [µM]	Drug concentration (µM) Aqueous humor [2, 10] [µM]	Drug concentration (µM) Ciliary process [2, 10] [µM]	Drug concentration (µM) Cornea [2, 10] [µM]	solubility ([3]; phosphate buffer) [mM]	Log P [4]	kin x 10^3 (hr^-1) No epithelium [5] [hr^-1]	kin x 10^3 (hr^-1) Cornea intact [5] [hr^-1]	Ki [6] [nM]	Ki [7] [nM]	Δ IOP ± SE (mm Hg) 30 min [8] [mm Hg]	Δ IOP ± SE (mm Hg) 60 min [8] [mm Hg]	Δ IOP ± SE (mm Hg) 90 min [8] [mm Hg]	IOP returns to baseline values after ... from administration [8] [h]	other results
NS(=O)(=O)c1ccc(CNC(=S)Nc2ccc(C(=O)O)cc2)cc1 [B13]	21	204 ± 13	50 ± 7	123 ± 9	62 ± 4	23 ± 2	76 ± 5	46 (≈ 16.8 mg/mL)	1.428	9.1	3.3	9	47	1.2±0.15	7.0±0.15	10.3±0.20		
NS(=O)(=O)c1ccc(CNC(=S)NC(CO)C(=O)O)cc1 (stereo not shown) [B19]	9							70 (≈ 23.3 mg/mL)	1.662	8.5	3.3	2	23				5 to 6	
NS(=O)(=O)c1ccc(CNC(=S)NC(C(=O)O)C(O)c2ccccc2)cc1 (stereo not shown) [B20]	7	205 ± 12	49 ± 5	133 ± 10	53 ± 5	15 ± 1	70 ± 9	51 (≈ 20.9 mg/mL)	2.518	10.7	4.9	1	20				5 to 6	
NS(=O)(=O)c1ccc(CNC(=S)NC(CS)C(=O)O)cc1 (stereo not shown) [B22]	8							65 (≈ 22.7 mg/mL)	0.124	0.9	0.4	3	21					
NS(=O)(=O)c1ccc(CNC(=S)NCCC(=O)NC(Cc2cnc[nH]2)C(=O)O)cc1 (stereo not shown) [B40]	9								0.933	5.9	2.8	4	22					solubility at 3 h [3]: 57 mM (≈ 25.9 mg/mL)
CCN[C@H]1C[C@H](C)S(=O)(=O)c2sc(S(N)(=O)=O)cc21 [Dorzolamide, dorzolamide, reference compound]									2.0^e	5.2	3.0			2.2±0.15	4.1±0.15	2.7±0.10		solubility at 3 h ([3]; phosphate buffer): 60 mM (≈ 19.5 mg/mL); Δ IOP ± SE (mm Hg) 30 min ([8]; listed as dorzolamide): 2.2 mm Hg; Δ IOP ± SE (mm Hg) 60 min ([8]; listed as dorzolamide): 4.1 mm Hg
